One assay has as its target T1, 26S proteasome (Homo sapiens, UniProt P28074).
T1 sequence (P28074 60-263): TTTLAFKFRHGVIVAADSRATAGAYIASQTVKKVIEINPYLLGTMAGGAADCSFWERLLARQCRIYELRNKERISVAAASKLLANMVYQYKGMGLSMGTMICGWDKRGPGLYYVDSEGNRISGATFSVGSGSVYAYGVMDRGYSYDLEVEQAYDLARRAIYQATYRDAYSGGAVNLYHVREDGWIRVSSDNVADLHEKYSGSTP
Kind of assay: Proteasome inhibitory activity (Suc-LLVY-amc) in RPMI 8226 cell lysate. It is filed as biochemical. How it is done: RPMI 8226 cells (1 × 10^6 cells/mL) were collected, centrifuged, and washed twice with cold PBS (Gibco). The supernatant was discarded, and 200 μL of ice-cold lysis buffer (NP40 cell lysis buffer (Invitrogen, Eugene, OR, USA), supplemented with 1 mM PMSF (Sigma) and protease inhibitor cocktail (Sigma), was added to the pellet. Cells were kept on ice for 30 min and vortexed every 10 min. Samples were then centrifuged at 4 °C for 10 min at 16,000× g. Supernatant containing the proteins was collected. Protein quantification was performed using the Coomassie (Bradford) Protein Assay Kit (ThermoFisher, Waltham, MA, USA) following the manufacturer instructions. In each well of a 96-well black plate (ThermoFisher), 10 µg of proteins were mixed with assay buffer (50 mM Tris-HCl, pH 7.5, 40 mM KCl, 5 mM MgCl2, 0.5 mM ATP, 1 mM DTT, 0.5 mg/mL BSA) in 180 µL total volume. […] The plate was then incubated for 30 min at 37 °C. After incubation, the reaction was started by adding the fluorometric peptide substrate Suc-LLVY-amc (Bio-Techne, Minneapolis, MN, USA) at a final concentration of 100 µM, except for the blank wells. Following 1 h incubation at 37 °C in the dark, the fluorescence signal was red (excitation: 380 nm, emission: 440–460 nm) using a Cytation 3 plate reader (BioTek). The percentage of 26S proteasome activity was measured by comparing the fluorescence of the sample treated with the vehicle control wells and multiplied by 100. The IC50 value was calculated as mentioned above, and each compound was tested in triplicate in three independent experiments.

A further assay has as its system RPMI 8226 cells. Kind of assay: Antiproliferative assay (XTT, 72 h). It is filed as cell-based, human. The following applies: for IC50: RPMI 8226 cells, 72 h, XTT, mean ± SD, n = 3.
For another assay, the system named is HDAC. Kind of assay: HDAC inhibitory activity in RPMI 8226 cells (MAL substrate, UHPLC-MS). It is filed as cell-based, human. The following applies: 8 h; for Inhibition of HDAC activity: 10 µM. How it is done: RPMI 8226 cells were seeded in 96-well plates (Costar) at a density of 15,000 cells per well in 25 µL of medium containing the HDAC substrate N-(4-methyl-7-aminocoumarinyl)-Nα-(t-butoxycarbonyl)-Nω-acetyllysineamide (21 µM, MAL, Sigma). The cells were directly treated with the compounds at 10 µM or with Ent (0.4–250 µM) for 8 h to obtain a final volume of 50 µL. […] Following the incubation, the reaction was stopped by adding 10 µL of 6X RIPA buffer, supplemented with protease inhibitor (Sigma). Then, 160 µL of cold acetonitrile were added and the plate was placed for 10 min at −80 °C. The plate was centrifuged at 5000× g for 10 min at 4 °C, and the supernatant was transferred into a UHPLC-adapted 96-well plate (Nunc 96-well plate conical bottom, ThermoFisher) and sealed. The substrate (MAL) and its deacetylated product (dMAL) were measured using a UHPLC-MS method as previously described. The percentage of HDAC inhibition is given by 100 − [(tested sample × 100/control sample)], and the dose-response curve of Ent was established.

For another assay, the system named is RPMI 8226/BTZ100 cells. Kind of assay: cells. The assay is classed as cell-based, human. To be noted: for IC50: read-out: IC50 Value Antiproliferative Activity RPMI 8226/BTZ100; for Increased resistance (RPMI 8226/BTZ100 vs. RPMI 8226): ratio of IC50 in resistant vs. parental cells.
Assay [1] relates to 3D co-culture spheroids containing RPMI 8226 cells and mesenchymal stem cells (MSC) in a 5:1 ratio. Kind of assay: Antiproliferative assay in 3D co-culture spheroids (CellTiter-Glo 3D, 48 h). It is filed as cell-based, human. The following applies: RPMI 8226 + MSC 5:1 spheroids, mean ± SD, n = 3. How it is done: The multiple myeloma human plasma cells RPMI 8226 were purchased from American Type Culture Collection (ATCC, Manassas, VA, USA) and cultured in RPMI 1640 medium (Gibco, Paisley, UK) supplemented with 50 µg/mL streptomycin sulfate, 50 U/mL penicillin G sodium salt (Gibco, Grand Island, NY, USA) and 10% fetal bovine serum (FBS) (Biowest, Nuaillé, France). […] Human MSC from the bone marrow were purchased from PromoCell and were cultured in Mesenchymal Stem Cell Growth Medium 2 (PromoCell, Heidelberg, Germany) supplemented with 100 μg/mL streptomycin sulfate and 100 U/mL penicillin G sodium salt.
RPMI 8226 cells and MSC were mixed in a 5:1 ratio. The cell mixture was centrifuged, and medium containing 20% collagen I (Gibco) adjusted to pH 7 was added to the cell pellet. Five μL drops were plated in each well of an ice-cold 96-well ultra-low attachment U-bottom plate (Corning, Kennebunk, MA, USA) and the plate was incubated for 30 min at 37 °C and 5% CO2 atmosphere. After the incubation, 200 μL of RPMI 1640 medium (Gibco) supplemented with 50 µg/mL streptomycin sulfate, 50 U/mL penicillin G sodium salt (Gibco) and 10% FBS (Biowest) was added to each well. The 3D spheroids were formed after 48 h.
RPMI 8226 and RPMI 8226/BTZ100 cells were seeded in 96-well plates (Costar, Kennebunk, MA, USA) at a density of 15,000 cells per well and directly treated for 72 h with the various compounds using increasing concentrations (0.31–2000 nM). […] Following the treatment, 100 μL of medium was carefully removed from each well and collagenase (1.5 μL of a 100 mg/mL solution, Sigma) was added. The plate was shaken at 37 °C for 10 min at 350 rpm. Then, 100 μL of CellTiter-Glo 3D reagent (Promega, Fitchburg, WI, USA) was added to each well. The plate was incubated for 5 min at 37 °C under agitation at 250 rpm, followed by 25 min at room temperature without agitation. Finally, the luminescence was measured using a Cytation 3 plate reader (BioTek). The percentage of cell proliferation and calculation of the IC50 value were determined as previously described. Each compound was tested in triplicate in three independent experiments.

[2] abbreviates: 26S proteasome in RPMI 8226 cell lysate, 30 min preincubation, Suc-LLVY-amc 100 µM, mean ± SD, n = 3; read-out: IC50 Value PI Activity.
[3] abbreviates: RPMI 8226 cells resistant to BTZ, 72 h, XTT, mean ± SD, n = 3.
The mark [4] stands for this setting: read-out: IC50 Value PI Activity; 26S proteasome in RPMI 8226 cell lysate, 30 min preincubation, Suc-LLVY-amc 100 µM, mean ± SD, n = 3.

Like-named read-outs stand apart in the source and are kept apart here.

Here are results for nine compounds from publication PMC9920246, “Entinostat-Bortezomib Hybrids against Multiple Myeloma” (Molecules, 2023).

Consider `CC(C)CC(NC(=O)C(Cc1ccccc1)NC(=O)CCC(=O)NCc1ccc(C(=O)Nc2ccccc2N)cc1)B1OC2CC3CC(C3(C)C)C2(C)O1` [Compound 1, N^1-(4-((2-aminophenyl)carbamoyl)benzyl)-N^4-((2R)-1-(((1R)-3-methyl-1-((3aR)-3a,5,5-trimethylhexahydro-4,6-methanobenzo[d][1,3,2]dioxaborol-2-yl)butyl)amino)-1-oxo-3-phenylpropan-2-yl)succinimide], for which the IC50 on 26S proteasome (setting [2]) is 0.0103 ± 0.0027 µM; in the assay on RPMI 8226 cells (Homo sapiens), 0.678 ± 0.0425 µM.

With `Nc1ccccc1NC(=O)c1ccc(CNC(=O)OCc2cccnc2)cc1` [Ent, entinostat], the “Inhibition of HDAC activity” value with HDAC is recorded as 51%. The IC50 in the assay with HDAC (0.4–250 µM, read-out: HDAC inhibition IC50) worked out at 9.3 ± 0.7 µM; in the assay with RPMI 8226/BTZ100 cells (Homo sapiens, RPMI-8226, 72 h) it was 0.562 ± 0.0517 µM; in assay [1] (Homo sapiens), 0.349 ± 0.133 µM; with RPMI 8226 cells (Homo sapiens), 0.329 ± 0.0257 µM.

On to `CC(C)C[C@H](NC(=O)[C@@H](Cc1ccccc1)NC(=O)Cc1ccc(C(=O)Nc2ccccc2N)cc1)B1OC2CC3CC(C3(C)C)[C@@]2(C)O1` (stereo partly drawn) [Compound 6, N-(2-aminophenyl)-4-(2-(((2R)-1-(((1R)-3-methyl-1-((3aR)-3a,5,5-trimethylhexahydro-4,6-methanobenzo[d][1,3,2]dioxaborol-2-yl)butyl)amino)-1-oxo-3-phenylpropan-2-yl)amino)-2-oxoethyl)benzamide], for which the IC50 is over 0.05 µM at 26S proteasome (setting [2]) and 0.337 ± 0.0494 µM in the assay on RPMI 8226 cells (Homo sapiens).

Consider `CC(C)C[C@H](NC(=O)[C@@H](Cc1ccccc1)NC(=O)c1ccc(C(=O)Nc2ccccc2N)cc1)B1OC2CC3CC(C3(C)C)[C@]2(C)O1` (stereo partly drawn) [Compound 2, N^1-(2-aminophenyl)-N^4-((2R)-1-(((1R)-3-methyl-1-((3aS)-3a,5,5-trimethylhexahydro-4,6-methanobenzo[d][1,3,2]dioxaborol-2-yl)butyl)amino)-1-oxo-3-phenylpropan-2-yl)terephthalamide], for which the “Inhibition of HDAC activity” value in the assay with HDAC is recorded as 50%. Further, the IC50 was 0.112 ± 0.013 µM in the assay with RPMI 8226/BTZ100 cells (Homo sapiens, RPMI-8226, 72 h); 0.0325 ± 0.0075 µM in assay [1] (Homo sapiens); 0.0095 ± 0.0023 µM on 26S proteasome (setting [2]); 0.0371 ± 0.0029 µM with RPMI 8226 cells (Homo sapiens). The “Increased resistance (RPMI 8226/BTZ100 vs. RPMI 8226)” value with RPMI 8226/BTZ100 cells was determined as 3.0 fold. In the assay with RPMI 8226 cells (compared to compound 3), the “Fold less active than compound 3 in RPMI 8226 cells” value is “ca. 4 times”.

As to `CC(C)C[C@H](NC(=O)[C@@H](Cc1ccccc1)NC(=O)c1ccc(C(=O)NCc2ccc(C(=O)Nc3ccccc3N)cc2)cc1)B1OC2CC3CC(C3(C)C)[C@@]2(C)O1` (stereo partly drawn) [Compound 4, N^1-(4-((2-aminophenyl)carbamoyl)benzyl)-N^4-((2R)-1-(((1R)-3-methyl-1-((3aR)-3a,5,5-trimethylhexahydro-4,6-methanobenzo[d][1,3,2]dioxaborol-2-yl)butyl)amino)-1-oxo-3-phenylpropan-2-yl)terephthalamide], the IC50 was over 0.05 µM on 26S proteasome (setting [2]) and 0.802 ± 0.0727 µM with RPMI 8226 cells (Homo sapiens).

For the compound `CC(C)C[C@H](NC(=O)[C@@H](Cc1ccccc1)NC(=O)c1cnc(C(=O)NCc2ccc(C(=O)Nc3ccccc3N)cc2)cn1)B1OC2CC3CC(C3(C)C)[C@@]2(C)O1` (stereo partly drawn) [Compound 5, N^2-(4-((2-aminophenyl)carbamoyl)benzyl)-N^5-((2R)-1-(((1R)-3-methyl-1-((3aR)-3a,5,5-trimethylhexahydro-4,6-methanobenzo[d][1,3,2]dioxaborol-2-yl)butyl)amino)-1-oxo-3-phenylpropan-2-yl)pyrazine-2,5-dicarboxamide], the IC50 in the assay on RPMI 8226/BTZ100 cells (Homo sapiens, RPMI-8226, 72 h) is 0.203 ± 0.0361 µM; in assay [1] (Homo sapiens), 0.0651 ± 0.0141 µM; on 26S proteasome (setting [2]), 0.0148 ± 0.0025 µM; with RPMI 8226 cells (Homo sapiens), 0.0252 ± 0.0022 µM. Besides, the “Increased resistance (RPMI 8226/BTZ100 vs. RPMI 8226)” value with RPMI 8226/BTZ100 cells was 8.0 fold.

On to `CC(C)C[C@H](NC(=O)c1cnc(C(=O)Nc2ccccc2N)cn1)B1OC2CC3CC(C3(C)C)[C@]2(C)O1` (stereo partly drawn) [Compound 10, N^2-(2-aminophenyl)-N^5-((1R)-3-methyl-1-((3aS)-3a,5,5-trimethylhexahydro-4,6-methanobenzo[d][1,3,2]dioxaborol-2-yl)butyl)pyrazine-2,5-dicarboxamide], for which the IC50 is over 0.05 µM on 26S proteasome (setting [2]) and over 2 µM in the assay on RPMI 8226 cells (Homo sapiens).

Regarding `CC(C)C[C@H](NC(=O)[C@@H](Cc1ccc(N(CCCl)CCCl)cc1)NC(=O)c1cnc(Cl)cn1)B1OC2CC3CC(C3(C)C)[C@]2(C)O1` (stereo partly drawn) [Compound 9, N-((2R)-3-(4-(bis(2-chloroethyl)amino)phenyl)-1-(((1R)-3-methyl-1-((3aS)-3a,5,5-trimethylhexahydro-4,6-methanobenzo[d][1,3,2]dioxaborol-2-yl)butyl)amino)-1-oxopropan-2-yl)-5-chloropyrazine-2-carboxamide], the IC50 in the assay on RPMI 8226/BTZ100 cells (setting [3]) is 1.03 ± 0.205 µM; in assay [1], 0.188 ± 0.0425 µM; on 26S proteasome (setting [4]), over 0.05 µM; in the assay with RPMI 8226 cells, 0.0376 ± 0.0011 µM.

Regarding `CC(C)C[C@H](NC(=O)[C@@H](Cc1ccc(N(CCCl)CCCl)cc1)NC(=O)c1cnccn1)B1OC2CC3CC(C3(C)C)[C@]2(C)O1` (stereo partly drawn) [Compound 8, N-((2R)-3-(4-(bis(2-chloroethyl)amino)phenyl)-1-(((1R)-3-methyl-1-((3aS)-3a,5,5-trimethylhexahydro-4,6-methanobenzo[d][1,3,2]dioxaborol-2-yl)butyl)amino)-1-oxopropan-2-yl)pyrazine-2-carboxamide], the IC50 in the assay with RPMI 8226/BTZ100 cells (setting [3]) amounted to 1.01 ± 0.0886 µM; in assay [1], 0.03 ± 0.0016 µM; on 26S proteasome (setting [4]), 0.0121 ± 0.0011 µM; with RPMI 8226 cells it was 0.0196 ± 0.0004 µM.
